These results are taken from US20220064167A1, “IMIDAZO-PYRAZOLE CARBOXAMIDE DERIVATIVES AS ANTICANCER AGENTS AND THE SYNTHESIS THEREOF” (AVIDIN KFT., priority 2018, published 2022).

Assay [1] concerns CD33 expression in HL-60 cells. As to the kind of experiment: quantitative real time PCR of stem cell marker (FIG. 3A). It counts as cell-based, human. To be noted: HL-60, 24 h after treatment, normalized to ACTB. The procedure:
(§1) HL-60 cells (10×10^6) were plated in 100 mm tissue culture dishes (Corning Life Sciences) in RPMI 10% FCS. Cells were treated in 10 mL total volume with the compound described in Example 83 24 h after treatment, nucleic acid preparation was done by using the Bioneer RNA purification kit (Bioneer, Viral RNA extraction kit, Daejeon, South Korea) according to an already published protocol (Szebeni et al. 2017a). The quality and quantity of the isolated RNA were measured with NanoDrop1000 Version 3.8.1. (Thermo Fisher Scientific). Reverse transcription from 3 μg of total RNA was performed with the High-Capacity cDNA Archive Kit (Applied Biosystems, Foster City, Calif., USA) in a total volume of 30 μL according to the manufacturer's protocol. Quantitative-real time PCR was carried out using gene specific primers for CD33 (primer sequences: forward 5′ […] 3′, reverse 5′ […] 3′) and CD34, (primer sequences: forward 5′ gcgctttgcttgctgagt 3′, reverse 5′ […] 3′) using Sybr Green detection on a LightCycler Nano instrument (Roche, Hungary). Relative gene expression data was normalized to ACTB (beta actin, primer sequences: forward 5′ attggcaatgagcggttc 3′, reverse 5′ cgtggatgccacaggact 3′) expression.
(In qPCR the cycle at which signal appears reflects the starting amount.)

Assay [2] deals with CD34 expression in HL-60 cells. Described as above. It counts as cell-based, human. To be noted: HL-60, 24 h after treatment, normalized to ACTB. The procedure: as §1
The test system of assay [3] is HeLa (human cervical carcinoma). As to the kind of experiment: viability assay (Table 2). The format is cell-based. The procedure:
(§2) For viability assays cells were seeded in 96 well plates (MCF7 and 4T1: 6000, HL60: 120.000 cells/well) and incubated overnight. Compounds were dissolved in dimethyl sulfoxide (DMSO). Cells were treated with an increasing concentration of compounds having the general formula (I.) (156 nM-100 μM). Cell viability was determined after 72h incubation. Resazurin reagent (Sigma-Aldrich) was dissolved in PBS (pH 7.4) at 0.15 mg/ml concentration, sterile filtered (0.22 μm, Merck Millipore) and aliquoted at −20° C. Resazurin reagent (Sigma-Aldrich) was added at a final concentration of 25 μg/ml. After 2 hours incubation at 37° C. 5% CO2 fluorescence (530 nm excitation/580 nm emission) was recorded on a multimode microplate reader (Cytofluor4000, PerSeptive Biosytems). Viability was calculated with relation to untreated control cells and blank wells containing media without cells. IC50 values (50% inhibiting concentration) were calculated by GraphPad Prism® 5 (La Jolla, Calif., USA).
(§3) GBM2 (human glioblastoma), HeLa (human cervical carcinoma), MIA PaCa-2 (human pancreas carcinoma) and U87MG (human glioblastoma) cells were maintained in Dulbecco's Modified Eagle Medium (DMEM) 10% fetal calf serum (FCS, Gibco). A375 (human melanoma), A549 (human lung adenocarcinoma) and HEP3B (human hepatoma) cells were maintained in Dulbecco's Modified Eagle Medium/Nutrient Mixture F-12 (DMEM/F12) 10% FCS.
(§4) Media were supplemented with 2 mM GlutaMAX, and 100 U/mL penicillin, 100 μg/mL streptomycin (Life Technologies, Carlsbad, Calif., USA). Cell cultures were maintained at 37° C. in a humidified incubator in an atmosphere of 5% CO2 (Sanyo, Japan).
(§5) Viability assays were performed as described in Example 102.

For assay [4], the system named is MOLT4 (human leukemia). Nature of the assay: viability assay (Table 2). It counts as cell-based. To be noted: MOLT-4. The method, then:
as §2
(§6) HT168 (human melanoma), HT199 (human melanoma), HT29 (human colorectal adenocarcinoma), MOLT4 (human leukemia) and U937 (human lymphoma) cells were maintained in Roswell Park Memorial Institute 1640 medium (RPMI-1640) 10% FCS. SKOV-3 cells were maintained in Dulbecco's Modified Eagle Medium/McCoy's medium (DMEM/McCoy) 10% FCS.
as §4, §5

Assay [5] concerns SKOV-3 cells (ovarian adenocarcinoma). As to the kind of experiment: viability assay (Table 2). The format is cell-based. To be noted: Homo sapiens, SK-OV-3. The method, then:
as §2, §6, §4, §5

Assay [6] relates to U937 (human lymphoma). As to the kind of experiment: viability assay (Table 2). It counts as cell-based. To be noted: U-937. The procedure: as §2, §6, §4, §5
Assay [7] relates to HTT199 human melanoma cells in SCID immune-deficient mouse. As to the kind of experiment: melanoma mouse model (FIG. 8). The format is in vivo. To be noted: 3 mg/kg intravenously, 10 occasions. The procedure: The effect on melanoma was studied on SCID immune-deficient mouse model inoculated in the spleen with HTT199 human melanoma cells (ATCC) (1 million cells/animal). Two groups were formed from randomly selected mice, with 10 animals in each group. Group 1: control group, it was only administered a carrier (0.1 mL, 0.9% NaCl solution) intravenously; group 2: group treated with compound 83, it was administered 3 mg/kg of compound 83 in PEG100:Solutol:PBS (1:4:15 vol ratio), intravenously.
The treatments were performed from the third day, on five consecutive occasions per week, for 2 weeks, on a total of 10 occasions. As time went on, every day we determined the number of surviving animals and represented it in percentage per group as compared to the total initial number of animals (FIG. 8). It can be seen that the 3 mg/kg dose of compound 83 administered intravenously was effective, the treatment with compound 83 increased the LD50 (from day 33 to day 38) and the survival rate of the animals.

For assay [8], the system named is HEP3B (human hepatoma). As to the kind of experiment: viability assay (Table 2). The format is cell-based. The method, then:
as §2, §3, §4, §5

For assay [9], the system named is U87MG (human glioblastoma). As to the kind of experiment: viability assay (Table 2). To be noted: U-87 MG, read-out: IC50 U87. The format is cell-based. The procedure:
as §2, §3, §4, §5

The structures appear in SMILES notation.

As a reminder, the IC50 is the concentration needed to halve the response being measured. Take `CC(C)(C)Nc1c(C(C)(C)C)[nH]c2c(C(=O)Nc3ccc(N)cc3)cnn12` [Example 83, N-(4-Aminophenyl)-2-(tert-butyl)-3-(tert-butylamino)-1H-imidazo[1,2-b]pyrazole-7-carboxamide]: the “expression of haematopoietic stem cell marker CD33” value in [1] was “decreased”. Further, the “expression of haematopoietic stem cell marker CD34” value in [2] is reported as “decreased”. The 50% inhibitory concentration (IC50) came out at 0.1 µM in assay [3], 0.15 µM in assay [4], 0.15 µM in assay [5] and 0.25 µM in assay [6]. The “survival rate of the animals” value in assay [7] is “increased”. Besides, the median survival time in assay [7] (control day 33) worked out at 38 days.
Consider `CC(C)(C)Nc1c(C(C)(C)C)[nH]c2c(C(=O)Nc3ccc(F)cc3)cnn12` [Example 60, 2-(Tert-butyl)-N-(4-fluorophenyl)-3-((tert-butyl-2-yl)amino)-1H-imidazo[1,2-b]pyrazole-7-carboxamide], for which the 50% inhibitory concentration (IC50) in [8] and in assay [9] was 0.25 µM in each case.
